Measured values published in PMC3136361 (Journal of medicinal chemistry, 2011).
Several values for one entry are separate records, joined by “and”; a condition that tells them apart may be missing. Identical values can stand only once.

Assays:
[1] = Intrinsic clearance in mouse hepatocytes; assay type: in vitro ADME
[2] = system: SREBP; assay: SREBP-responsive; conditions: luciferase reporter assay, CHO-K1 cells
[3] = Parallel artificial membrane permeability assay; conditions: for passive permeability through artificial membrane (in words): PAMPA
[4] = system: SREBP-responsive genes in DU145 cells; assay: Real-time RT-PCR of SREBP-responsive genes in DU145 cells; assay type: cell-based, human
[5] = system: ob/ob mice; conditions: male ob/ob mice, oral in chow, 8 wk

Question: Which “metabolic stability (in words)” value [1] does the source give for `CCCc1cc(-c2nc(-c3ccc(C)cc3)cs2)ccn1` [Compound 1, fatostatin] here?
Answer: low metabolic stability

Question: With `CCCc1cc(-c2nc(-c3ccccc3)cs2)ccn1` [Compound 5a] as the compound, how does the “decrease in potency relative to fatostatin” value [2] read?
Answer: fourfold

Question: Which “decrease in potency relative to fatostatin” value [2] does the source give for `Cc1ccc(-c2csc(-c3ccccc3)n2)cc1` [Compound 12] here?
Answer: 3.3 fold

Question: Which “activity in reporter assay (in words)” value [2] does the source give for `CCCc1cc(-c2ccc(-c3ccc(C)cc3)cc2)ccn1` [Compound 15] here?
Answer: large loss of activity

Question: What does the source list for `CCCc1cc(-c2nc(-c3ccc(NC(C)C)cc3)cs2)ccn1` [Compound 20, N-Isopropyl-4-(2-(2-propylpyridin-4-yl)thiazol-4-yl)aniline]?
Answer: metabolic stability (in words) [1]: low metabolic stability; passive permeability through artificial membrane (in words) [3]: moderate

Question: Which “effect on transcription of three control genes unrelated to SREBP” value ([4]; RPL13A, B2M, GAPDH) does the source give for `CCCc1cc(-c2nc(-c3ccc(NS(C)(=O)=O)cc3)cs2)ccn1` [Compound 24, N-(4-(2-(2-Propylpyridin-4-yl)thiazol-4-yl)phenyl)methanesulfonamide] here?
Answer: no significant effect

Question: And the “downregulation of transcription of nine SREBP-responsive genes” value ([4]; real-time RT-PCR, all nine genes)?
Answer: at least 25%

Question: And the “metabolic stability (in words)” value [1]?
Answer: moderately stable

Question: And the “less weight than control mice” value [5]?
Answer: 8–9%

Question: What about the “passive permeability through artificial membrane (in words)” value [3] of the same compound?
Answer: high

Question: For `CC(=O)CC(c1ccccc1)c1c(O)c2ccccc2oc1=O` (stereo not drawn) [Warfarin, reference compound], which “Reference PAMPA Papp” value ([3]; Warfarin 10 μM, control for membrane integrity, run alongside each compound) is on record?
Answer: 5.34 10^−6 cm/sec and 5.58 10^−6 cm/sec
